Results taken from US20240197823A1, “CATIONIC ANTIMICROBIAL PEPTIDES AND USES THEREOF” (priority 2021, published 2024).
In brackets after ≈: the same amount, converted by molar mass. No end group written: not given here.

How the values were obtained:
[1] = test system: MDR clinical strains of ESKAPE pathogens and E. coli provided by the CDC (AR isolates panel); assay: Advanced testing, MIC against CDC AR isolates panel; format: cell-based; conditions: colistin-resistant strains
Procedure: (§1) Bacteria. Bacterial clinical isolates, used for initial screening and in previous studies [Greber K E et al., 2017], were anonymously provided by the clinical microbiology laboratory of the University of Pittsburgh medical Center. The panel used for secondary screening was from CDC (Table 4), with resistance profiles data. Bacteria are stored in lock-secured −80° C. freezer and typically retrieved by obtaining single colonies on agar plates prior for subsequent liquid broth cultures. Suspensions of test bacteria were prepared from log phase of growth by diluting overnight cultures at 1:100 with fresh cation-adjusted MHB (MHB2, Millipore Sigma, USA) and incubating for additional 3-4 hours. Bacteria were spun at 3000×g for 10 minutes and the pellet resuspended in test condition media (Millipore Sigma, USA) to determine bacterial turbidity using a Den-1B densitometer (Grant Instruments, USA) at 0.5 McFarland (unit of bacterial density) corresponding to […].
(§2) Antibacterial assays. To examine antibacterial activity, this study used minor modifications of a standard growth inhibition assay endorsed by the Clinical and Laboratory Standards Institute (CLSI), as previously described [Greber K E et al., 2017]. Bacteria were incubated with each of the indicated peptides in MHB2. The bacterial cells were kept in an incubator for 18 hours at 37° C., which is linked to a robotic system that feeds a plate reader every hour with one of 8×96-well plates. This set-up allows the collection of growth kinetic data at A 570 (absorbance at 570 nm) to examine growth inhibition in real time (BioTek Instruments, USA). […] To assess bactericidal properties of the peptide, the assay was modified by using 15% fetal bovine serum (FBS, for a more physiologically relevant test condition) mixed with 25% MHB2 and 60% PBS. Bacterial cells (colony forming unit/mL or CFU/mL) were enumerated after incubating treated bacteria for 3 hours and plating serially diluted samples on broth agar medium at 37° C. overnight. […] For killing kinetics, we slightly modified the bactericidal assay to examine bacterial killing at the MBC (or 2×MBC) as a function of time for up to 3 hours. Data were analyzed using GraphPad Prism software.

E. Faecium = assay: MIC growth inhibition assay in MHB2; format: cell-based, Enterococcus faecium
Procedure: as §1, §2

S. aureus = assay: MIC growth inhibition assay in MHB2; format: cell-based, Staphylococcus aureus
Procedure: as §1, §2

E. coli = assay: microbe, parasite or virus in culture
Procedure: as §1, §2

P. aeruginosa = assay: microbe, parasite or virus in culture
Procedure: as §1, §2

RRWVRRVRRVWRRVRRVVRRWV [E4]
cross-resistance with colistin [1]: no cross-resistance at all

Cc1nnc(SCC2=C(C(=O)O)N3C(=O)[C@@H](NC(=O)Cn4cnnn4)[C@H]3SC2)s1 [Cefa]
MIC (E. Faecium; strain EF23614): >16 µM
MIC (E. Faecium; strain EF24670): >16 µM
MIC (E. Faecium; strain EF26215): 4 µM (≈ 1.82 µg/mL)
MIC (E. Faecium; strain EF26692): 4 µM (≈ 1.82 µg/mL)
MIC (S. aureus; strain SA12212): 16 µM (≈ 7.27 µg/mL)
MIC (S. aureus; strain SA18710): 16 µM (≈ 7.27 µg/mL)
MIC (S. aureus; strain SA49775): 2 µM (≈ 0.909 µg/mL)
MIC (S. aureus; strain SA-US300): 8 µM (≈ 3.64 µg/mL)

RWVRRVRRWVRRVRRWVRRV [E68]
cross-resistance with colistin [1]: no cross-resistance at all

RRVWRRVRRVWRRVRRVVRRVW [E71]
MIC (E. coli): 1 µM
cross-resistance with colistin [1]: no cross-resistance at all

Cc1onc(-c2ccccc2)c1C(=O)N[C@@H]1C(=O)N2[C@@H]1SC(C)(C)[C@@H]2C(=O)O [Oxa]
MIC (E. Faecium; strain EF23614): 0.25 µM (≈ 0.1 µg/mL)
MIC (E. Faecium; strain EF24670): >16 µM
MIC (E. Faecium; strain EF26215): 2 µM (≈ 0.803 µg/mL)
MIC (E. Faecium; strain EF26692): 2 µM (≈ 0.803 µg/mL)
MIC (S. aureus; strain SA12212): 8 µM (≈ 3.21 µg/mL)
MIC (S. aureus; strain SA18710): 4 µM (≈ 1.61 µg/mL)
MIC (S. aureus; strain SA49775): 0.25 µM (≈ 0.1 µg/mL)
MIC (S. aureus; strain SA-US300): 4 µM (≈ 1.61 µg/mL)

RRWVRWVRRWVRWVRR [E80]
MIC (P. aeruginosa): 2 µM

RRVWRRVRRVWRRVRRVWRRVV [E75]
MIC (P. aeruginosa): 13 µM
